Measurements published in publication PMC12729524, “Enhancement of Structural Stability and IgG Affinity of a Z34C-Derived α-Helical Peptide via Lactam Stapling” (Antibodies, 2025).
Where a SMILES comes first, the peptide text is derived from it.

Legend:
[1] = target: α-chymotrypsin (Bos taurus, UniProt P00766); conditions: 100 μM peptide in DPBS, peptide-to-enzyme mass ratio 100:1, time points 0, 1, 5, 15, 30, 60 min, stopped with 0.1% TFA, RP-HPLC read-out
Procedure: Peptides were prepared at a concentration of 100 μM in DPBS, and α-chymotrypsin was added to achieve a final peptide-to-enzyme mass ratio of 100:1. The digestion was carried out at time points of 0, 1, 5, 15, 30, and 60 min, after which 0.1% TFA was added to terminate the reaction. The resulting samples were analyzed by reversed-phase HPLC (water/acetonitrile with 0.1% TFA) to monitor peptide stability.

[2] = tested on: FITC-labeled human IgG; experiment: IgG capture test on peptide-functionalized glass slides, fluorescence imaging; assay type: binding; conditions: peptide immobilized via thiol-maleimide on PEG-modified epoxy glass slide; antibody 5 µg/mL in PBS, 25 °C, 3 h; ImageJ; n = 1
Procedure: Epoxy-functionalized microscope glass slides (Tekdon Incorporated, Myakka City, FL, USA) were mounted in eight-well chambers. For peptide immobilization, NH2-PEG5000-COOH linkers (Biopharma PEG, Watertown, MA, USA) were applied to each well at a concentration of 1 mg/mL in ddH2O and incubated for ~5 h. The slides were then rinsed three times with ddH2O. Carboxyl groups of NH2-PEG5000-COOH linkers were activated for 30 min using 4 µg/mL 1-ethyl-3-(3-dimethylaminopropyl) carbodiimide hydrochloride (EDC; Thermo Fisher Scientific, Waltham, MA, USA) and 6 µg/mL N-hydroxy succinimide (NHS; Thermo Fisher Scientific) in ddH2O. Upon activation, the surfaces were washed three times with 1× PBS (Gibco, Grand Island, NY, USA) and incubated for over 5 h with an excess of NH2-PEG1000-MAL linkers (1 mg/mL in 1× PBS; Biopharma PEG). […]
[…] (Abcam, Cambridge, UK) were used to evaluate the antibody-binding capacity of each functionalized surface. […] The amount of surface-captured antibody was quantified via fluorescence imaging. […] Fluorescence intensity was analyzed using Image J software (64-bit Java 8). […]
Figure 3 IgG capture assay using FITC-labeled human IgG to evaluate the Fc-binding capability of peptides. […] (C) Quantitative fluorescence intensity analysis performed using ImageJ software (64-bit Java 8). […]

Row | Molecule | time within which most of the peptide signal disappeared on α-chymotrypsin treatment [1] | IgG-binding capacity (fluorescence intensity of captured IgG), in words [2]
1 | CSCC[C@H](NC(=O)[C@H](CC(N)=O)NC(=O)[C@@H](N)Cc1ccccc1)C(=O)N[C@@H](CCC(N)=O)C(=O)N[C@@H](C)C(=O)N[C@@H](CCC(N)=O)C(=O)N[C@@H](CCCNC(=N)N)C(=O)N[C@@H](CCCNC(=N)N)C(=O)N[C@@H](Cc1ccccc1)C(=O)N[C@@H](Cc1ccc(O)cc1)C(=O)N[C@@H](CCC(=O)O)C(=O)N[C@@H](C)C(=O)N[C@@H](CC(C)C)C(=O)N[C@@H](Cc1c[nH]cn1)C(=O)N[C@@H](CS)C(N)=O [SpA h1] (H-FNMQAQRRFYEALHC-NH2) | ≤ 1 min | 
2 | Protein A: Fc-binding protein of Staphylococcus aureus, positive control of the IgG capture test |  | strong signal intensity
